How the values were obtained:
[1] = tested on: morphine tolerant mice; test: Opiate tolerance test (hot plate) in the mouse; format: in vivo; conditions: for increase of foot-licking latency as compared with animals receiving morphine from Day 1 to Day 6: morphine 32 mg/kg i.p. twice daily Day 1-6; for effect on foot-licking latency: morphine tolerant mice
[2] = tested on: Sprague-Dawley rats; test: Remifentanil intravenous self-administration model in Sprague-Dawley rats; format: in vivo, rat; conditions: for rate of lever press (speed of lever pressing): vehicle 0.077±0.031, P>0.05
[3] = tested on: Sprague-Dawley rats; test: Cue-induced reinstatement of remifentanil seeking in the rat; format: in vivo
[4] = tested on: rat model of drug dependence; conditions: cited from earlier work
[5] = tested on: adult CD1 mice; conditions: 20 mg/kg, i.p., cited from earlier work

With COC(=O)N1CC[C@@H]2[C@H]1CCC[C@@]2(O)C#Cc1cccc(C)c1 [Compound (I), (−)-(3aR,4S,7aR)-4-Hydroxy-4-m-tolylethynyl-octahydro-indole-1-carboxylic acid methyl ester] the “increase of foot-licking latency as compared with animals receiving morphine from Day 1 to Day 6” value ([1]; 1 mg/kg p.o. 60 minutes before the test on Day 7, p<0.01) was “+44%”, the “effect on foot-licking latency” value ([1]; 3 mg/kg p.o. 60 minutes before the test on Day 7) was “no significant effects” and the “effect on foot-licking latency” value ([1]; 10 mg/kg p.o. 60 minutes before the test on Day 7) was “no significant effects”. The “average number of remifentanil infusions” value ([2]; 3 mg/kg p.o. 30 min before one remifentanil 3.2 μg/kg/infusion session) was “did not significantly affect”, the “rate of lever press (speed of lever pressing)” value ([2]; 3 mg/kg p.o. 30 min before session) was 0.048±0.019 responses/second/session and the “average number of remifentanil infusions” value ([2]; 10 mg/kg p.o. 30 min before one remifentanil 3.2 μg/kg/infusion session) was “did not significantly affect”. The “rate of lever press (speed of lever pressing)” value ([2]; 10 mg/kg p.o. 30 min before session) was 0.035±0.010 responses/second/session, the “average number of remifentanil infusions” value ([2]; 30 mg/kg p.o. 30 min before one remifentanil 3.2 μg/kg/infusion session) was “did not significantly affect” and the “rate of lever press (speed of lever pressing)” value ([2]; 30 mg/kg p.o. 30 min before session) was 0.026±0.007 responses/second/session. For the same molecule, the “effect on cue-induced reinstatement (lever presses)” value ([3]; 3 mg/kg p.o. 30 minutes before the cue reinstatement session) was “No significant effect”, the “number of active lever presses as compared with vehicle condition” value ([3]; 10 mg/kg p.o. 30 minutes before the cue reinstatement session, p<0.01) was “significantly decreased” and the “number of inactive lever presses as compared with vehicle” value ([3]; 10 mg/kg p.o. 30 minutes before the cue reinstatement session, p<0.05) was “significantly decreased”.

For Cc1cccc(C#Cc2ccccc2)n1 [Compound (III), 2-Methyl-6-(phenylethynyl)-pyridine, reference compound], the “increase of foot-licking latency as compared with animals receiving morphine from Day 1 to Day 6” value ([1]; 10 mg/kg p.o. 60 minutes before the test on Day 7, p<0.05) was “+32%”, the “rate of lever press” value ([2]; rat, in vivo) was 0.039±0.011 responses per second and the “number of active lever presses as compared with vehicle condition” value ([3]; rat, in vivo) was “significantly decreased”. For the same molecule, the “number of inactive lever presses as compared with vehicle” value ([3]; rat, in vivo) was “did not significantly affect”, the “reduction of the self-administration (SA) of ketamine” value ([4]; dose dependently) was 75% and the “reduction of the self-administration (SA) of heroin” value ([4]; modestly) was 20%.

In the case of Cc1nc(C#Cc2cccnc2)cs1 [MTEP, 3-[(2-methyl-1,3-thiazol-4-yl)ethynyl]pyridine], the “operant responding for morphine” value ([5]; morphine 0.1 mg/kg/infusion) is given as “attenuated” and the “cue-induced morphine-seeking after a period of forced abstinence” value [5] is given as “attenuated”.
